Experimental data published in patent US7417048B2, “Aryl-substituted derivatives of cycloalkyl and branched chain alkyl carboxylic acids useful as antinociceptive drugs for peripheral targets” (priority 2003, dated 2008).

test system: tongue of the test subject; experiment: Cold sensation threshold on tongue, impregnated filter paper; assay type: in vivo, human; conditions: filter paper 1 × 1 cm on tongue, 30 sec, presence or absence of cooling effect

SMILES | Cold Sensation Threshold on Tongue
CC1CCC(C(C)C)C(C(=O)Nc2cccc3ccccc23)C1 (stereo not shown) [N-(1′-naphthyl)-2-isopropyl-5-methylcyclohexanecarboxamide] | 6 µg
COc1ccc(NC(=O)C2C3C=CC(C3)C2CC(C)C)c(OC)c1 (stereo not shown) [N-(2′,4′-dimethoxyphenyl)-3-isobutylbicyclo[2.2.1]hept-5-ene-2-carboxamide] | 1 µg
Cc1ccc(NC(=O)C2(C(C)C)CCCCCC2)c(C)c1 [N-(2′,4′-dimethylphenyl)-1-isopropylcycloheptanecarboxamide] | 15 µg
Cc1ccc(NC(=O)C(C)(C(C)C)C(C)C)c(C)c1 [N-(2′,4′-dimethylphenyl)-2-isopropyl-2,3-dimethylbutyramide] | 1 µg
Cc1ccc(NC(=O)C2CC(C)CCC2C(C)C)c(C)c1 (stereo not shown) [N-(2′,4′-dimethylphenyl)-2-isopropyl-5-methylcyclohexanecarboxamide] | 0.1 µg
Cc1ccc(C)c(NC(=O)C(C)(CC(C)C)C(C)C)c1 (stereo not shown) [N-(2′,5′-dimethylphenyl)-2-isopropyl-2,4-dimethylpentanamide] | 5 µg
Cc1ccc(C)c(NC(=O)C2C3CCC(C3)C2(C)C)c1 (stereo not shown) [N-(2′,5′-dimethylphenyl)-3,3-dimethylbicyclo[2.2.1]heptane-2-carboxamide] | 20 µg
CC1CCC(C(C)C)C(C(=O)Nc2ccccc2O)C1 (stereo not shown) [N-(2′-hydroxyphenyl)-2-isopropyl-5-methylcyclohexanecarboxamide] | 0.5 µg
COc1ccc(NC(=O)C2C3C=CC(C3)C2CC(C)C)c(C)c1 (stereo not shown) [N-(2′-methyl-4′-methoxyphenyl)-3-isobutylbicyclo[2.2.1]hept-5-ene-2-carboxamide] | 1 µg
CCCCC1C2C=CC(C2)C1C(=O)Nc1ccc(OC)cc1C (stereo not shown) [N-(2′-methyl-4′-methoxyphenyl)-3-n-butylbicyclo[2.2.1]hept-5-ene-2-carboxamide] | 1 µg
COc1ccc(NC(=O)C2(C(C)C)CCCCCC2)cc1OC [N-(3′,4′-dimethoxyphenyl)-1-isopropylcycloheptanecarboxamide] | 5 µg
Cc1ccc(NC(=O)C2(C(C)C)CCCCCC2)cc1C [N-(3′,4′-dimethylphenyl)-1-isopropylcycloheptanecarboxamide] | 15 µg
Cc1ccc(NC(=O)C(C)(C(C)C)C(C)C)cc1C [N-(3′,4′-dimethylphenyl)-2-isopropyl-2,3-dimethylbutyramide] | 3 µg
COc1ccc(NC(=O)C2C3C=CC(C3)C2CC(C)C)cc1O (stereo not shown) [N-(3′-hydroxy-4′-methoxyphenyl)-3-isobutylbicyclo[2.2.1]hept-5-ene-2-carboxamide] | 8 µg
CCCCC1C2C=CC(C2)C1C(=O)Nc1ccc(OC)c(O)c1 (stereo not shown) [N-(3′-hydroxy-4′-methoxyphenyl)-3-n-butylbicyclo[2.2.1]hept-5-ene-2-carboxamide] | 5 µg
Cc1ccc(NC(=O)C2(C(C)C)CCCCCC2)cc1O [N-(3′-hydroxy-4′-methylphenyl)-1-isopropylcycloheptanecarboxamide] | 1 µg
Cc1ccc(NC(=O)C2CC(C)CCC2C(C)C)cc1O (stereo not shown) [N-(3′-hydroxy-4′-methylphenyl)-2-isopropyl-5-methylcyclohexanecarboxamide] | 0.1 µg
CC(C)C1(C(=O)Nc2cccc(O)c2)CCCCCC1 [N-(3′-hydroxyphenyl)-1-isopropylcycloheptanecarboxamide] | 10 µg
CC(=O)c1ccc(NC(=O)C2CC(C)CCC2C(C)C)cc1 (stereo not shown) [N-(4′-acetylphenyl)-2-isopropyl-5-methylcyclohexanecarboxamide] | 2 µg
